What all share (test): growth of human tumour cells (NCI), 48 h
For test [1], the system named is SF-539.
Test [2] has as its system SK-MEL-28.
Test [3] concerns OVCAR-8.
Test [4] concerns TK-10.
Test [5] has as its system HT-29.
Test [6] relates to 786-0.
Test [7] deals with HOP-92.
Test [8] deals with SK-MEL-2.
The subject of test [9] is KM12.
The subject of test [10] is IGROV-1.
The subject of test [11] is SN12C.
The subject of test [12] is MOLT-4.
Test [13] deals with SF-268.
Test [14] concerns MDA-MB-435.
For test [15], the system named is ACHN.
Test [16] relates to RPMI-8226.
Test [17] has as its system MDA-N.
Test [18] relates to Malme-3M.
Test [19] has as its system HL-60.

SMILES strings stand for the structures.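 96-well plates; 48 h exposure; 5 concentrations. Endpoints by linear interpolation between flanking doses. Not reached: highest tested concentration assigned. GI50 marks 50% less growth.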 The source made the active and inactive calls. Rule as the data show it: active = GI50 up to about 1.1 µM and inactive = higher.

For `O=C(NC1CCCCC1)c1nn[nH]c1Cl`, the GI50 in test [1], in [2], in [3], in test [4], in test [5] and in test [6] was > 100 µM (inactive) each time. Besides, the GI50 in test [7], in test [8], in test [9], in test [10], in test [11] and in [12] was > 100 µM (inactive) in each case. The GI50 in test [13], in test [14] and in test [15] was > 100 µM (inactive) in each case.
As to `CC(=O)OC12c3ccccc3C(c3ccccc31)C1C(=O)N(N=C(C)C)C(=O)C12` (stereo not drawn), the GI50 in test [16], in test [1], in test [2], in [3], in test [4] and in [5] was > 100 µM (inactive) in each case. Besides, the GI50 in test [6] is > 100 µM (inactive); in test [17] it was > 100 µM (inactive); in test [18], 63.2 µM (inactive); in [9] it was > 100 µM (inactive); in test [10], > 100 µM (inactive); in test [11], > 100 µM (inactive). In addition, the GI50 in [12], in [13] and in [19] was > 100 µM (inactive) in each case.
Consider `CCOc1ccc(/C=C2\NC(=S)N(/C=C3\C(=O)Oc4ccccc4C3=O)C2=O)cc1`, for which the GI50 in test [1] was 16.3 µM (inactive); in test [2] it was 36.8 µM (inactive); in test [3], 19.4 µM (inactive); in test [4], 20.2 µM (inactive); in test [5] it was 32.5 µM (inactive); in test [6], 19.2 µM (inactive). In addition, the GI50 in [7] is 22.8 µM (inactive); in test [8], 17.3 µM (inactive); in test [9], 20.7 µM (inactive); in [10], 24.8 µM (inactive); in test [11] it was 19.7 µM (inactive); in [12], 24.3 µM (inactive). Further, the GI50 is 22.2 µM (inactive) in test [13], 28.8 µM (inactive) in test [14], 25.5 µM (inactive) in test [15] and 13.7 µM (inactive) in [19].
As for `Cc1ccc(N2CCc3c(C)c(C#N)c4nc5ccccc5n4c32)cc1`, the GI50 in [1] was 39.3 µM (inactive); in test [2], > 100 µM (inactive); in test [3] it was 49.3 µM (inactive); in [4], > 100 µM (inactive); in [5] it was > 100 µM (inactive); in test [6], 12.1 µM (inactive). Moreover, the GI50 was 10.4 µM (inactive) in test [7]; 23.8 µM (inactive) in test [8]; > 100 µM (inactive) in test [18]; 68.1 µM (inactive) in test [10]; > 100 µM (inactive) in test [11]; 31.8 µM (inactive) in test [13]. Also, the GI50 in test [14] is 6.27 µM (inactive); in test [15] it was > 100 µM (inactive); in test [19], > 100 µM (inactive).
Turning to `C=C(C)[C@@]1(O)O[C@H]2C[C@@]3(C)OC(=CC3=O)/C(C)=C\[C@@H]3OC(=O)[C@@]1(C)[C@H]32`, the GI50 in test [16] is 7.94 µM (inactive); in test [1] it was 23.9 µM (inactive); in test [2], 12.6 µM (inactive); in test [3], 27 µM (inactive); in test [4], 22.9 µM (inactive); in [5] it was 19.5 µM (inactive). In addition, the GI50 in [6] is 11.7 µM (inactive); in test [7] it was 20.4 µM (inactive); in test [8], 14 µM (inactive); in [18], 18.5 µM (inactive); in test [9], 15.1 µM (inactive); in test [10], 15 µM (inactive). The GI50 in test [11] is 15 µM (inactive); in test [12], 7.8 µM (inactive); in [13], 23 µM (inactive); in [14], 14.7 µM (inactive); in test [15], 18.2 µM (inactive); in [19], 14.2 µM (inactive).
With `CC(C)(O)CCC(O)C(C)(O)C1CCC2(O)C3=CC(=O)C4(O)CC(O)C(O)CC4(C)C3CCC12C.CC(C)(O)CCC(O)C(C)(O)C1CCC2(O)C3=CC(=O)C4CC(O)C(O)CC4(C)C3CCC12C` (stereo not drawn), the GI50 in test [1], in [2], in test [3], in [4], in [5] and in test [6] was > 100 µM (inactive) throughout. For the same compound, the GI50 in test [7], in test [8], in test [18], in test [9], in [10] and in test [11] was > 100 µM (inactive) in each case. The GI50 in [12], in test [13], in [14], in test [15] and in test [19] was > 100 µM (inactive) throughout.
Regarding `COc1cccc(-c2nc(O)c3ccccc3n2)c1OC`, the GI50 in test [16] is 2.99 µM (inactive); in [3] it was > 100 µM (inactive); in test [5], > 100 µM (inactive); in [6], > 100 µM (inactive); in test [17], > 100 µM (inactive); in test [8], > 100 µM (inactive). The GI50 in test [18], in test [9], in test [10], in test [11], in test [12] and in test [13] was > 100 µM (inactive) each time. The GI50 in [14] and in [15] was > 100 µM (inactive) in each case.
For `COc1ccc(C(O)c2cc(OC)c(OC)c(OC)c2)cc1` (stereo not drawn), the GI50 was 19.9 µM (inactive) in test [16]; 21.3 µM (inactive) in test [1]; 72.1 µM (inactive) in [2]; 30.3 µM (inactive) in [3]; 31.3 µM (inactive) in test [4]; 7.16 µM (inactive) in [5]. Also, the GI50 in test [6] was 46.8 µM (inactive); in [7], 27.3 µM (inactive); in [18], 23.7 µM (inactive); in [9], 7.52 µM (inactive); in test [10], 18 µM (inactive); in [11], 42.8 µM (inactive). The GI50 in test [12] was 16.9 µM (inactive); in [13], 39 µM (inactive); in test [15], 69.8 µM (inactive); in test [19], 6.11 µM (inactive).
As for `COc1cc([C@@H]2c3cc4c(c(O)c3C[C@H]3COC(=O)[C@@H]32)OCO4)cc(OC)c1O`, the GI50 in test [16] was 0.026 µM (active); in [3], 0.0249 µM (active); in test [4] it was 0.00762 µM (active); in [5] it was 0.577 µM (active); in [6], 0.00596 µM (active); in test [7], < 0.02 µM (active). In addition, the GI50 was 0.027 µM (active) in test [8]; 0.0266 µM (active) in test [18]; 0.0277 µM (active) in test [10]; 0.033 µM (active) in [11]; < 0.02 µM (active) in test [13]; 0.00631 µM (active) in test [15].

Source of the values: ChEMBL document CHEMBL1201862, “PubChem BioAssay data set” (2004).
